From patent US20120029187A1, “HALOALKYLSULFONANILIDE DERIVATIVE” (Nissan Chemical Industries, Ltd., priority 2009, published 2012)

Key:
Format in all cases: in vivo
water foxtail [1] = test: Test Example 4: herbicidal effect in foliage treatment; conditions: three weeks after application
In short: (§1)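 Weeds and crops sown in sterilized diluvial soil under ~1.5 cm cover and grown in greenhouse at 25 to 30° C. At 14 days, water-diluted emulsifiable concentrate sprayed onto foliage at set doses (g/a); herbicidal effect scored on a rating scale three weeks after application.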

large crabgrass [2] = test: as above; conditions: three weeks after application
In short: as §1

redroot pigweed [3] = test: as above; conditions: dose 3.2 g/a, three weeks after application
In short: as §1

common ragweed [4] = test: as above; conditions: three weeks after application
In short: as §1

barnyardgrass [5] = test: as above; conditions: three weeks after application
In short: as §1

giant foxtail [6] = test: as above; conditions: three weeks after application
In short: as §1

beadstraw [7] = test: as above; conditions: three weeks after application
In short: as §1

common lambsquater [8] = test: as above; conditions: three weeks after application
In short: as §1

posumbu knotweed = test: as above; conditions: dose 3.2 g/a, three weeks after application
In short: as §1

Italian ryegrass [9] = test: as above; conditions: three weeks after application
In short: as §1

velvetleaf [10] = test: as above; conditions: dose 3.2 g/a, three weeks after application
In short: as §1

common chickweed [11] = test: as above; conditions: three weeks after application
In short: as §1

wild oat [12] = test: as above; conditions: three weeks after application
In short: as §1

transplanted rice = test: Test Example 1: preemergence treatment under submerged conditions, effect on crop; conditions: dose 2.52 g/a
In short: (§2)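 Score 0–5 by mortality (5: ≥90%; 0: <5%), read 3 weeks post-application. Paddy-type cups: alluvial soil under 4 cm water, weeds seeded plus transplanted 2.5-leaf rice; diluted EC dosed onto water surface same day as sowing, g/a basis; greenhouse 25 to 30° C.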

water foxtail [13] = test: Test Example 3: herbicidal effects in soil treatment
In short: (§3)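 Seeds were sown in sterilized diluvial soil and covered with about 1.5 cm of soil. Compounds, formulated as emulsifiable concentrates and diluted with water, were sprayed evenly over the soil surface at set doses in g/a. Herbicidal effect was scored on a rating scale three weeks later.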

large crabgrass [14] = test: as above
In short: as §3

redroot pigweed [15] = test: as above
In short: as §3

common ragweed [16] = test: as above; conditions: dose 3.2 g/a
In short: as §3

barnyardgrass [17] = test: as above
In short: as §3

giant foxtail [18] = test: as above
In short: as §3

beadstraw [19] = test: as above
In short: as §3

common lambsquater [20] = test: as above
In short: as §3

Italian ryegrass [21] = test: as above
In short: as §3

velvetleaf [22] = test: as above; conditions: dose 3.2 g/a
In short: as §3

common chickweed [23] = test: as above
In short: as §3

wild oat [24] = test: as above
In short: as §3

barnyardgrass [25] = test: Test Example 2: herbicidal effects during the vegetation period under submerged conditions; conditions: treatment during the vegetation period under submerged conditions; dose 2.52 g/a
In short: (§4)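 Barnyardgrass, bulrush and ducksalad were co-sown in alluvial soil flooded to 4 cm and grown in a greenhouse at 25 to 30° C. At the 1- or 2-leaf stage, water-diluted emulsifiable concentrates went onto the water surface at set doses (g/a). Herbicidal effect was scored three weeks later on a graded scale.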

ducksalad [26] = test: as above; conditions: treatment during the vegetation period under submerged conditions; dose 2.52 g/a
In short: as §4

bulrush [27] = test: as above; conditions: treatment during the vegetation period under submerged conditions; dose 2.52 g/a
In short: as §4

barnyardgrass [28] = test: Test Example 1: herbicidal effects in preemergence treatment under submerged conditions; conditions: dose 2.52 g/a
In short: as §2

ducksalad [29] = test: as above; conditions: dose 2.52 g/a
In short: as §2

bulrush [30] = test: as above; conditions: dose 2.52 g/a
In short: as §2

COC(=O)N(c1ccccc1CN1COC(C)(C)C(F)C1=O)S(=O)(=O)C(F)(F)F (centres unmarked) [II-33]
G: water foxtail, herbicidal effect (water foxtail [1]; dose 3.2 g/a): 5 (mortality of 90% or above (nearly complete death))
D: large crabgrass, herbicidal effect (large crabgrass [2]; dose 3.2 g/a): 4 (mortality of at least 70% and less than 90%)
K: redroot pigweed, herbicidal effect (redroot pigweed [3]): 1 (mortality of at least 5% and less than 20%)
J: common ragweed, herbicidal effect (common ragweed [4]; dose 3.2 g/a): 3 (mortality of at least 40% and less than 70%)
A: barnyardgrass, herbicidal effect (barnyardgrass [5]; dose 3.2 g/a): 4 (mortality of at least 70% and less than 90%)
E: giant foxtail, herbicidal effect (giant foxtail [6]; dose 3.2 g/a): 4 (mortality of at least 70% and less than 90%)
O: beadstraw, herbicidal effect (beadstraw [7]; dose 3.2 g/a): 4 (mortality of at least 70% and less than 90%)
L: common lambsquater, herbicidal effect (common lambsquater [8]; dose 3.2 g/a): 0 (mortality of less than 5% (almost ineffective))
M: posumbu knotweed, herbicidal effect (posumbu knotweed): 3 (mortality of at least 40% and less than 70%)
H: Italian ryegrass, herbicidal effect (Italian ryegrass [9]; dose 3.2 g/a): 4 (mortality of at least 70% and less than 90%)
I: velvetleaf, herbicidal effect (velvetleaf [10]): 3 (mortality of at least 40% and less than 70%)
N: common chickweed, herbicidal effect (common chickweed [11]; dose 3.2 g/a): 3 (mortality of at least 40% and less than 70%)
F: wild oat, herbicidal effect (wild oat [12]; dose 3.2 g/a): 0 (mortality of less than 5% (almost ineffective))
a: transplanted rice, effect on crop (evaluation scale 0-5) (transplanted rice): 0 (mortality of less than 5% (almost ineffective))
G: water foxtail, herbicidal effect (evaluation scale 0-5) (water foxtail [13]; dose 3.2 g/a): 5 (mortality of 90% or above (nearly complete death))
D: large crabgrass, herbicidal effect (evaluation scale 0-5) (large crabgrass [14]; dose 3.2 g/a): 5 (mortality of 90% or above (nearly complete death))
K: redroot pigweed, herbicidal effect (evaluation scale 0-5) (redroot pigweed [15]; dose 3.2 g/a): 3 (mortality of at least 40% and less than 70%)
J: common ragweed, herbicidal effect (evaluation scale 0-5) (common ragweed [16]): 5 (mortality of 90% or above (nearly complete death))
A: barnyardgrass, herbicidal effect (evaluation scale 0-5) (barnyardgrass [17]; dose 3.2 g/a): 5 (mortality of 90% or above (nearly complete death))
E: giant foxtail, herbicidal effect (evaluation scale 0-5) (giant foxtail [18]; dose 3.2 g/a): 5 (mortality of 90% or above (nearly complete death))
O: beadstraw, herbicidal effect (evaluation scale 0-5) (beadstraw [19]; dose 3.2 g/a): 4 (mortality of at least 70% and less than 90%)
L: common lambsquater, herbicidal effect (evaluation scale 0-5) (common lambsquater [20]; dose 3.2 g/a): 0 (mortality of less than 5% (almost ineffective))
H: Italian ryegrass, herbicidal effect (evaluation scale 0-5) (Italian ryegrass [21]; dose 3.2 g/a): 4 (mortality of at least 70% and less than 90%)
I: velvetleaf, herbicidal effect (evaluation scale 0-5) (velvetleaf [22]): 4 (mortality of at least 70% and less than 90%)
N: common chickweed, herbicidal effect (evaluation scale 0-5) (common chickweed [23]; dose 3.2 g/a): 3 (mortality of at least 40% and less than 70%)
F: wild oat, herbicidal effect (evaluation scale 0-5) (wild oat [24]; dose 3.2 g/a): 0 (mortality of less than 5% (almost ineffective))
A: barnyardgrass, herbicidal effect (evaluation scale 0-5) (barnyardgrass [25]): 5 (mortality of 90% or above (nearly complete death))
C: ducksalad, herbicidal effect (evaluation scale 0-5) (ducksalad [26]): 5 (mortality of 90% or above (nearly complete death))
B: bulrush, herbicidal effect (evaluation scale 0-5) (bulrush [27]): 5 (mortality of 90% or above (nearly complete death))
A: barnyardgrass, herbicidal effect (evaluation scale 0-5) (barnyardgrass [28]): 5 (mortality of 90% or above (nearly complete death))
C: ducksalad, herbicidal effect (evaluation scale 0-5) (ducksalad [29]): 5 (mortality of 90% or above (nearly complete death))
B: bulrush, herbicidal effect (evaluation scale 0-5) (bulrush [30]): 5 (mortality of 90% or above (nearly complete death))

CCC(=O)N(c1ccccc1CN1COC(C)(C)CC1=O)S(=O)(=O)C(F)(F)F [II-19, 6,6-dimethyl-3-[2-(N-ethylcarbonyl-N-trifluoromethanesulfonyl)aminobenzyl]-1,3-oxazinan-4-one]
G: water foxtail, herbicidal effect (water foxtail [1]; dose 6.3 g/a): 5 (mortality of 90% or above (nearly complete death))
D: large crabgrass, herbicidal effect (large crabgrass [2]; dose 6.3 g/a): 4 (mortality of at least 70% and less than 90%)
J: common ragweed, herbicidal effect (common ragweed [4]; dose 6.3 g/a): 5 (mortality of 90% or above (nearly complete death))
A: barnyardgrass, herbicidal effect (barnyardgrass [5]; dose 6.3 g/a): 5 (mortality of 90% or above (nearly complete death))
E: giant foxtail, herbicidal effect (giant foxtail [6]; dose 6.3 g/a): 4 (mortality of at least 70% and less than 90%)
O: beadstraw, herbicidal effect (beadstraw [7]; dose 6.3 g/a): 5 (mortality of 90% or above (nearly complete death))
L: common lambsquater, herbicidal effect (common lambsquater [8]; dose 6.3 g/a): 0 (mortality of less than 5% (almost ineffective))
H: Italian ryegrass, herbicidal effect (Italian ryegrass [9]; dose 6.3 g/a): 4 (mortality of at least 70% and less than 90%)
N: common chickweed, herbicidal effect (common chickweed [11]; dose 6.3 g/a): 4 (mortality of at least 70% and less than 90%)
F: wild oat, herbicidal effect (wild oat [12]; dose 6.3 g/a): 0 (mortality of less than 5% (almost ineffective))
a: transplanted rice, effect on crop (evaluation scale 0-5) (transplanted rice): 0 (mortality of less than 5% (almost ineffective))
G: water foxtail, herbicidal effect (evaluation scale 0-5) (water foxtail [13]; dose 6.3 g/a): 5 (mortality of 90% or above (nearly complete death))
D: large crabgrass, herbicidal effect (evaluation scale 0-5) (large crabgrass [14]; dose 6.3 g/a): 5 (mortality of 90% or above (nearly complete death))
K: redroot pigweed, herbicidal effect (evaluation scale 0-5) (redroot pigweed [15]; dose 6.3 g/a): 2 (mortality of at least 20% and less than 40%)
A: barnyardgrass, herbicidal effect (evaluation scale 0-5) (barnyardgrass [17]; dose 6.3 g/a): 5 (mortality of 90% or above (nearly complete death))
E: giant foxtail, herbicidal effect (evaluation scale 0-5) (giant foxtail [18]; dose 6.3 g/a): 2 (mortality of at least 20% and less than 40%)
O: beadstraw, herbicidal effect (evaluation scale 0-5) (beadstraw [19]; dose 6.3 g/a): 4 (mortality of at least 70% and less than 90%)
L: common lambsquater, herbicidal effect (evaluation scale 0-5) (common lambsquater [20]; dose 6.3 g/a): 0 (mortality of less than 5% (almost ineffective))
H: Italian ryegrass, herbicidal effect (evaluation scale 0-5) (Italian ryegrass [21]; dose 6.3 g/a): 5 (mortality of 90% or above (nearly complete death))
N: common chickweed, herbicidal effect (evaluation scale 0-5) (common chickweed [23]; dose 6.3 g/a): 4 (mortality of at least 70% and less than 90%)
F: wild oat, herbicidal effect (evaluation scale 0-5) (wild oat [24]; dose 6.3 g/a): 0 (mortality of less than 5% (almost ineffective))
A: barnyardgrass, herbicidal effect (evaluation scale 0-5) (barnyardgrass [25]): 5 (mortality of 90% or above (nearly complete death))
C: ducksalad, herbicidal effect (evaluation scale 0-5) (ducksalad [26]): 5 (mortality of 90% or above (nearly complete death))
B: bulrush, herbicidal effect (evaluation scale 0-5) (bulrush [27]): 5 (mortality of 90% or above (nearly complete death))
A: barnyardgrass, herbicidal effect (evaluation scale 0-5) (barnyardgrass [28]): 5 (mortality of 90% or above (nearly complete death))
C: ducksalad, herbicidal effect (evaluation scale 0-5) (ducksalad [29]): 5 (mortality of 90% or above (nearly complete death))
B: bulrush, herbicidal effect (evaluation scale 0-5) (bulrush [30]): 5 (mortality of 90% or above (nearly complete death))
